We go through 21 compounds from patent publication US20220079924A1, “GLUCOCORTICOID RECEPTOR MODULATORS” (ORIC Pharmaceuticals, Inc., priority 2018, published 2022).

pIC50: −log10 of the molar value.

The assay concerns the target T1, GR (Homo sapiens, UniProt P04150).
T1 construct: expressed in transfected cells; host or cells: CHO-K1 (CHO-K1-GR-MMTV-Luc reporter cells)
T1 sequence (P04150 1-777): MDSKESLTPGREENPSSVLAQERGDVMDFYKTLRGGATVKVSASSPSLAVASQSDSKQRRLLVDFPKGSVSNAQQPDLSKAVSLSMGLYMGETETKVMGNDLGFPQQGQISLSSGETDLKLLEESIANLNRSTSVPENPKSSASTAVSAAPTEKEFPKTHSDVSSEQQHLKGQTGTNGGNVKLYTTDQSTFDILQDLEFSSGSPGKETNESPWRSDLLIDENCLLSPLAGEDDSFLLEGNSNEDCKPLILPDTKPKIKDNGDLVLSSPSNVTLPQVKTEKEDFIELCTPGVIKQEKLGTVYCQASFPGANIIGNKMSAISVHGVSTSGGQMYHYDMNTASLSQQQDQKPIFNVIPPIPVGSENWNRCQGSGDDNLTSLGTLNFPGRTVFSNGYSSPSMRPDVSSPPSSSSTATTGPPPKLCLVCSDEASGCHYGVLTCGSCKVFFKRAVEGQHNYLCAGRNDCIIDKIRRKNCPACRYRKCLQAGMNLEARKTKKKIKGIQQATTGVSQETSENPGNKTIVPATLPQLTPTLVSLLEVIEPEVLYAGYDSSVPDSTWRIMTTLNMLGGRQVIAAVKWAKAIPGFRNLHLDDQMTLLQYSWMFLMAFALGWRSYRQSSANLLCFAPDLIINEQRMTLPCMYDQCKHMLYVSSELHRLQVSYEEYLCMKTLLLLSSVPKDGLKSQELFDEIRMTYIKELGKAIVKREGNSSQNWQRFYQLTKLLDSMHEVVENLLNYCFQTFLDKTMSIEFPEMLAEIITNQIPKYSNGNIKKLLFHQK
The assay can be described thus: In Vitro GR Luciferase Reporter Assay (antagonist assay). Particulars: CHO-K1-GR-MMTV-Luc reporter cells, 10 nM Dexamethasone, 18-24 hours. In kind it is cell-based. On the procedure: Example A: In Vitro GR Luciferase Reporter Assay
Cell Line: CHO-K1-GR-MMTV-Luc reporter cells
Culture Media: DMEM (with phenol red)+10% FBS
Assay Media: DMEM (without phenol red)+10% CSS
Culture CHO-K1-GR-MMTV-Luc reporter cells in T175 flasks in Culture Media at conditions less than 90% confluence.
Using Bravo (Agilent) liquid handler:
200× DMSO 1:3 serial dilutions of control and test compounds in 96-well non-sterile V bottom plate in DMSO, 12 points for each compound were prepared.
Prepared 5× compound serial dilutions: Add 97.5 μL/well of Assay Media into 96-well non-sterile V bottom plate then added 2.5 ul of 200× concentration of compounds and mix well.
Seeded cells for Antagonist Assay: 5200 CHO-K1-GR-MMTV-Luc reporter cells were seeded in Greiner #781080 flat clear bottom 384-well white TC plate in 20 ul of Assay Media containing 12.5 nM Dexamethasone (final concentration=10 nM).
Added compounds: 5 μl of 5× compounds were added to appropriate wells and followed with a quick spin (1000 rpm, 10 sec) to bring media and cells to the bottom of plate. The plates were covered with SealMate film to avoid evaporation and placed in 37° C. incubator for approximately 18-24 hours.
Read plates: Equilibrate appropriate amount of Promega OneGlo luciferase reagent to room temperature. Remove the plates from incubator and add 25 uL of OneGlo reagent/well by Bravo and read the plates on Tecan Spark plate reader within 15 minutes.
The ability of the compounds disclosed herein to inhibit GR activity was quantified and the respective IC50 value was determined. Table 1 provides the cellular IC50 values of compounds disclosed herein.
For orientation: A reporter such as luciferase makes a cellular process visible.
As to `Cn1cnc(S(=O)(=O)N(C2CC2)[C@H]2CCC3=Cc4c(cnn4-c4ccc(F)cn4)C[C@]3(C(=O)c3ncc(C(C)(C)C)s3)C2)n1` [Example 65], the pIC50 (in general, the negative decadic logarithm of the IC50, by convention in mol/L) was not below 7.00. Compound `CC(C)N([C@H]1CCC2=Cc3c(cnn3-c3ccc(F)nc3)C[C@]2(C(=O)c2cc(F)ccn2)C1)S(=O)(=O)c1ncn(C)n1` [Example 66] showed a negative-log IC50 (pIC50) not below 7.00. The figure for `Cn1ccc(S(=O)(=O)N(C2CC2)[C@H]2CCC3=Cc4c(cnn4-c4ccc(F)cc4)C[C@]3(C(=O)c3cc(Cl)ccn3)C2)c1` [Example 67] is not below 7.00; for `CC(C)N([C@H]1CCC2=Cc3c(cnn3-c3ccc(F)nc3)C[C@]2(C(=O)c2cc(F)ccn2)C1)S(=O)(=O)c1cnn(C)c1` [Example 68] it is not below 7.00; for `CC(C)N([C@H]1CCC2=Cc3c(cnn3-c3ccc(F)nc3)C[C@]2(C(=O)c2cc(C(F)(F)F)ccn2)C1)S(=O)(=O)c1cnn(C)c1` [Example 69] it is not below 7.00. In turn, `Cn1cnc(S(=O)(=O)N(C2CC(F)(F)C2)[C@H]2CCC3=Cc4c(cnn4-c4ccc(F)nc4)C[C@]3(C(=O)c3cc(F)ccn3)C2)n1` [Example 70] had a negative-log IC50 (pIC50) not below 7.00. Under `Cn1cc(S(=O)(=O)N(C2CC(F)(F)C2)[C@H]2CCC3=Cc4c(cnn4-c4ccc(F)nc4)C[C@]3(C(=O)c3cc(F)ccn3)C2)cn1` [Example 71] stands not below 7.00; under `Cn1cc(-n2ncc3c2C=C2CC[C@H](N(C4CC4)S(=O)(=O)c4ccc(F)cc4)C[C@@]2(C(=O)c2cc(C(F)(F)F)ccn2)C3)ccc1=O` [Example 73], less than 6.00. Under `Cn1cc(S(=O)(=O)N(C2CC2)[C@H]2CCC3=Cc4c(cnn4-c4ccc(F)cn4)C[C@]3(C(=O)c3cc(C(F)(F)F)ccn3)C2)cn1` [Example 74] stands not below 7.00.

On to `Cn1cnc(S(=O)(=O)N(C2CC(F)(F)C2)[C@H]2CCC3=Cc4c(cnn4-c4ccc(F)nc4)C[C@]3(C(=O)c3cc(C(C)(C)C)ccn3)C2)n1` [Example 75], for which the negative logarithm of the IC50 (pIC50) was not below 7.00. `Cn1cc(S(=O)(=O)N(C2CC(F)(F)C2)[C@H]2CCC3=Cc4c(cnn4-c4ccc(F)nc4)C[C@]3(C(=O)c3cc(C(C)(C)C)ccn3)C2)cn1` [Example 76] had a pIC50 not below 7.00. The figure for `CC([C@H]1CCC2=Cc3c(cnn3-c3ccc(F)cc3)C[C@]2(C(=O)c2cc(F)ccn2)C1)S(=O)(=O)c1ncn(C)n1` (stereo partly drawn) [Example 77] is not below 7.00; for `Cn1cnc(S(=O)(=O)N(CC(F)(F)F)[C@H]2CCC3=Cc4c(cnn4-c4ccc(F)nc4)C[C@]3(C(=O)c3cc(F)ccn3)C2)n1` [Example 78] it is not below 7.00; for `CC(C)N([C@H]1CCC2=Cc3c(cnn3-c3ccc(F)cc3)C[C@]2(C(=O)c2cc(F)ccn2)C1)S(=O)(=O)c1cnn(C)c1` [Example 79] it is not below 7.00. The compound `Cn1cc(S(=O)(=O)N(C2CC2)[C@H]2CCC3=Cc4c(cnn4-c4ccc(F)cc4)C[C@]3(C(=O)c3cc(F)ccn3)C2)cn1` [Example 80] gave a pIC50 not below 7.00.

`CC(C)N([C@H]1CCC2=Cc3c(cnn3-c3ccc(F)cc3)C[C@]2(C(=O)c2cc(F)ccn2)C1)S(=O)(=O)c1ncn(C)n1` [Example 81] showed a negative-log IC50 (pIC50) not below 7.00. Under `Cn1cnc(S(=O)(=O)N(CC(F)(F)F)[C@H]2CCC3=Cc4c(cnn4-c4ccc(F)cc4)C[C@]3(C(=O)c3cc(F)ccn3)C2)c1` [Example 82] stands not below 7.00.

Regarding `C[C@H]([C@H]1CCC2=Cc3c(cnn3-c3ccc(F)cc3)C[C@]2(C(=O)c2cc(F)ccn2)C1)S(=O)(=O)c1ncn(C)n1` [Example 83], the negative logarithm of the IC50 (pIC50) was not below 7.00. Under `CC(C)N([C@H]1CCC2=Cc3c(cnn3-c3ccc(F)nc3)C[C@]2(C(=O)c2cc(F)ccn2)C1)S(=O)(=O)c1ccn(C)n1` [Example 84] stands not below 7.00; under `CC(C)N([C@H]1CCC2=Cc3c(cnn3-c3ccc(F)nc3)C[C@]2(C(=O)c2cc(Cl)ccn2)C1)S(=O)(=O)c1ccn(C)n1` [Example 85], not below 7.00; under `C[C@H]([C@H]1CCC2=Cc3c(cnn3-c3ccc(F)cc3)C[C@]2(C(=O)c2cc(Cl)ccn2)C1)S(=O)(=O)c1ncn(C)n1` [Example 86], not below 7.00.
